Here are results for four compounds from ChEMBL document CHEMBL1155679, “New xenicane diterpenoids from the gorgonian Acalycigorgia inermis” (2000).

The assay relates to K562. In words: Cytotoxicity against human K562 cells. The format is functional. The conditions noted are these: read-out: LC50 (the source's name).

Structures are written as SMILES. In brackets after ≈: the same amount, converted by molar mass.

For the compound `C=C=CCC[C@@H]1C(=O)OC[C@H]2C(=C)CC[C@@H]3O[C@@]3(C)CC[C@H]12` [ACALYCIXENIOLIDE C], the CC50 was determined as 1.6 mg/L (≈ 5.29 µM).
In the case of `C=C=CC/C=C1/C(=O)OC[C@H]2C(=C)CC[C@@H]3O[C@@]3(C)CC[C@H]12` [ACALYCIXENIOLIDE D], the CC50 was 52 mg/L (≈ 173 µM).
Regarding `C=C=CCC(OC(C)=O)C1=CO[C@H](OC(C)=O)[C@H]2C(=C)CC[C@@H]3O[C@@]3(C)CC[C@H]12` (some centres undefined) [ACALYCIXENIOLIDE E], the CC50 came to 4.7 mg/L (≈ 11.7 µM).
The value for `C=C1CC[C@@H]2O[C@@]2(C)CC[C@@H]2[C@H](CCC=C(C)C)C(=O)OC[C@@H]12` [ACALYCIXENIOLIDE F] was 0.2 mg/L (≈ 0.628 µM).
